Measurements: patent US20040229772A1, “Peptides responsive to antibodies against consensus peptide of the CS4-CFA/I family proteins” (priority 1996, published 2004)
No end group written: not given here.

Legend:
[1] = system: antibodies raised to the consensus peptide; assay: ELISA of 8-mer peptides with rabbit antibodies; format: binding; settings: for interaction of peptides with the antibodies raised to the consensus peptide: rabbit antibodies raised to consensus peptide SEQ ID NO:1; for reactivity of 8-mer peptides with antibodies from the rabbits: rabbit antibodies raised to consensus peptide SEQ ID NO:1, biotin-SGSG-peptide on streptavidin
Experimental: (§1) Blocks of pins for cleavable syntheses were obtained from Chiron Mimotopes U.S. Peptide synthesis was carried out according to the manufacturer's instructions using Opfp-derivatized amino acids. Peptides of length 8 with 7 overlap were manufactured in order to locate all linear epitopes in the sequence with a highest redundancy. […] Peptides were cleaved from the pins using 0.1 M phosphate buffer, pH 8.0, containing 40% acetonitrile. Two peptides were made and sacrificed for amino acid analysis as proof of peptide purity. A dinitrophenol (DNP) pin was included so that the efficiency of the cleavage could be monitored spectrophotometrically.
(§2) For blocking, a composition containing 5% nonfat dry milk in PBS+0.2% sodium azide was used. Stock streptavidin (Calbiochem Corp., La Jolla, Calif.) at 1 mg/ml in water was kept frozen in aliquots for up to several months. On the day of use, the stock streptavidin was diluted in phosphate buffered saline (PBS) to provide a concentration of 5 μg/ml streptavidin. Goat F(ab′)2 anti-mouse, anti-rabbit and anti-human sera were labeled with alkaline phosphatase (Biosource, International, Camarillo, Calif.).
(§3) Streptavidin was plated at 5 μg/ml, 50 μl per well, and incubated over night at 4° C. Plates were then washed by hand (Nunc Immunowash 12 hand plate washer. Fisher Scientific, Pittsburgh, Pa.) three times with PBS/0.1% TWEEN 20™. Peptides were then diluted to 10 μg/ml in PBS and plated at 50-μl/well. After incubation for one hour at room temperature followed by washing, the peptides were incubated with sera diluted in blocker at appropriate concentrations (5% nonfat dry milk) for 2 hours at room temperature. After washing the wells, 50 μl of phosphatase-labeled anti-serum IgG diluted 1:1000 in blocker was added to each well and was allowed to incubate at room temperature for 1 hour. The plates were washed. The 100 μl of PNDP (p-nitrophenylphosphate) substrate, prepared according to the manufacturer's instructions, was added to each well. Results were read at 5, 15 and 60 minutes using a microtiter plate reader (UVmax™, Moelcular Devices, Sunnyvale, Calif.).
Antibodies from the rabbits were then tested against the specific 8-mer peptides obtained from SEQ ID NO:1 in the manner disclosed above to determine the binding sites of the antibodies in the sera with the consensus peptide.

[2] = system: Antibody to 0166 lower; assay: ELISA of 8-mer peptides (pins) with rabbit serum; format: binding
Experimental: as §1, §2, §3
(§4) Partially to fully purified colonization factor (40% to 100% pure) was run on SDS-PAGE gel (5-15 μg/lane of 10 comb gel (precast 10 comb, 1 mm thickness, Tris-tricene gel from Novex, San Diego, Calif.), for primary immunization run 9 lanes for each rabbit (45-135 μg CF protein with ½ the amount used in the primary immunization used as a booster). The gel was stained with 0.5% COOMASSIE BLUE™ (BioRad, Richmond, Calif.) in water for 1 hour, then destained with multiple changes of water for 60-90 minutes. The colonization factor bands were excised with a scalpel and the excess gel trimmed. The bands were stored at −20° C. until use.
(§5) After removal from freezer, the gel slices were transferred to a glass tissue homogenizer using a teflon pestle with grooves at the tip. The slices were ground with 0.3 ml phosphate buffered saline (PBS). The drill was run to homogenize the gel for 30 to 45 seconds. (In the instant case, a pestle with a shaft of steel was used which allowed placement of the pestle into the chuck of the hand-held drill.)
(§6) The homogenate was transferred to 16 mm×150 mm test tubes with disposable plastic transfer pipet. The pestle and homogenizer vessel was rinsed repeatedly with PBS and the contents transferred to the 16×150 test tube until a volume of 1.2 ml was obtained.
(§7) The sample obtained above was placed in a vortex mixer and vortexed on high. Freund's adjuvant 1.2 ml was added. (Complete Freund's was used for the primary immunization, while incomplete Freund's was used for the boost.) The composition was vortexed until a thick emulsion of almost a butter consistency was obtained (12-20 minutes).
(§8) A preimmune serum was obtained on all animals, which were then immunized with the 1 ml of the emulsion subcutaneously at 4-6 spots on the shoulders and rump. The animals were boosted three weeks later, then bleed 10 days after the booster shots. […]

[3] = system: Antibody to 0166 upper; assay: ELISA of 8-mer peptides (pins) with rabbit serum; format: binding
Experimental: as §1, §2, §3, §4, §5, §6, §7, §8

[4] = system: Antibody to CFA/I; assay: ELISA of 8-mer peptides (pins) with rabbit serum; format: binding
Experimental: as §1, §2, §3, §4, §5, §6, §7, §8

[5] = system: Antibody to CS1; assay: ELISA of 8-mer peptides (pins) with rabbit serum; format: binding; settings: a listed pin number means recognized
Experimental: as §1, §2, §3, §4, §5, §6, §7, §8

[6] = system: Antibody to CS4; assay: ELISA of 8-mer peptides (pins) with rabbit serum; format: binding; settings: a listed pin number means recognized
Experimental: as §1, §2, §3, §4, §5, §6, §7, §8

[7] = system: Antibody to CS2; assay: ELISA of 8-mer peptides (pins) with rabbit serum; format: binding; settings: a listed pin number means recognized
Experimental: as §1, §2, §3, §4, §5, §6, §7, §8

[8] = system: 0166; assay: Western blot of immune serum with denatured protein; format: binding, E. coli; settings: 4 strong reaction, rabbit serum
Experimental: (§9) Rabbits were bled, then immunized on day 0 with a composition containing 280 μg peptide/BSA conjugate in Freund's complete adjuvant. On day 21, the animals were boosted with 140 μg peptide/BSA conjugate in Freund's incomplete adjuvant. Blood was drawn on day 32. The interaction of antibodies raised against the specific antigens of the denatured proteins of the various strains was studied by comparing interaction of serum from the animals obtained on day 0 with response on to serum from the animals obtained on day 32 by Western blot. In all instances, the Western blot was negative for reaction with serum obtained on day 0. The Western blot data on interaction of immune serum collected on day 32 with the denatured proteins is given below with 0 being no reaction and 4 being a strong reaction:
(§10) Rabbits were given a composition containing 400 μg peptide of the formula: […] (SEQ ID NO:1) in complete Freund's adjuvant. The response was evaluated as in Example 2:
(§11) The same study was done comparing antibodies raised to denatured proteins of PCF 0166.
(§12) Effect of antibody raised to whole CS2 protein was studied in the manner of example 5.

[9] = system: CS17; assay: as above; format: binding, E. coli; settings: 4 strong reaction, rabbit serum
Experimental: as §9, §10, §11, §12

[10] = system: CS1; assay: as above; format: binding, E. coli; settings: 4 strong reaction, rabbit serum
Experimental: as §9, §10, §11, §12

[11] = system: CS4; assay: as above; format: binding, E. coli; settings: 4 strong reaction, rabbit serum
Experimental: as §9, §10, §11, §12

[12] = system: whole bacteria, CF CS1; assay: Agglutination of whole bacteria by serum of immunized rabbits; format: cell-based, E. coli; settings: two rabbits immunized per preparation
[13] = system: whole bacteria, CF CS2; assay: as above; format: cell-based, E. coli; settings: two rabbits immunized per preparation
[14] = system: whole bacteria, CF CS4; assay: as above; format: cell-based, E. coli; settings: two rabbits immunized per preparation
[15] = system: whole bacteria, CF CS17; assay: as above; format: cell-based, E. coli; settings: two rabbits immunized per preparation
[16] = system: whole bacteria, CF 0166; assay: as above; format: cell-based, E. coli; settings: two rabbits immunized per preparation
[17] = system: whole bacteria, CF CFA/1; assay: as above; format: cell-based, E. coli; settings: two rabbits immunized per preparation
[18] = system: CFA/I; assay: Western blot of immune serum with denatured protein; format: binding, E. coli; settings: 4 strong reaction, rabbit serum
Experimental: as §9, §10, §11, §12

[19] = system: CS2; assay: as above; format: binding, E. coli; settings: 4 strong reaction, rabbit serum
Experimental: as §9, §10, §11, §12

[20] = rabbit 1082, a listed pin number means recognized
[21] = rabbit 1081, a listed pin number means recognized
[22] = rabbit 1079, a listed pin number means recognized

Substance	interaction of peptides with the antibodies raised to the consensus peptide [1]	reactivity of 8-mer peptides with antibodies from the rabbits [1]	pins (8-aa peptide) recognized by serum [2, 20]	pins (8-aa peptide) recognized by serum [3, 21]	pins (8-aa peptide) recognized by serum [4, 22]	pins (8-aa peptide) recognized by serum ([5]; Antibody to CS1, rabbit 1089)	pins (8-aa peptide) recognized by serum ([5]; Antibody to CS1, rabbit 1090)	pins (8-aa peptide) recognized by serum ([6]; Antibody to CS4, rabbit 938)	pins (8-aa peptide) recognized by serum ([6]; Antibody to CS4, rabbit 940)	Western blot reaction of immune serum with denatured protein ([8]; titer 1:50, 0 no reaction)	Western blot reaction of immune serum with denatured protein ([8]; titer 1:500, 0 no reaction)	Western blot reaction of immune serum with denatured protein ([9]; titer 1:50, 0 no reaction)	Western blot reaction of immune serum with denatured protein ([9]; titer 1:500, 0 no reaction)	Western blot reaction of immune serum with denatured protein ([9]; titer 1:5000, 0 no reaction)	Western blot reaction of immune serum with denatured protein ([9]; titer 1:50000, 0 no reaction)	Western blot reaction of immune serum with denatured protein ([10]; titer 1:50, 0 no reaction)	Western blot reaction of immune serum with denatured protein ([10]; titer 1:500, 0 no reaction)	Western blot reaction of immune serum with denatured protein ([10]; titer 1:5000, 0 no reaction)	Western blot reaction of immune serum with denatured protein ([10]; titer 1:50000, 0 no reaction)	Western blot reaction of immune serum with denatured protein ([11]; titer 1:50, 0 no reaction)	further results
PTIDLLQA (listed as Escherichia coli) [compound 13]	more reliably interactive	most reactive	13	13	13	13	13	13	13												pins (8-aa peptide) recognized by serum ([2]; rabbit 1083, a listed pin number means recognized): 13; pins (8-aa peptide) recognized by serum ([3]; rabbit 934, a listed pin number means recognized): 13; pins (8-aa peptide) recognized by serum ([4]; rabbit 1078, a listed pin number means recognized): 13
VDPTIDLL (listed as Escherichia coli) [compound 11]	more reliably interactive	most reactive	11	11	11	11	11	11	11												pins (8-aa peptide) recognized by serum ([7]; Antibody to CS2, rabbit 1076): 11; pins (8-aa peptide) recognized by serum ([7]; Antibody to CS2, rabbit 1077): 11
VEKNITVTASVDPTIDLLQADGSALPSAVALTYSPA (listed as Escherichia coli) [SEQ ID NO:1, 36 amino acid consensus peptide of the CS4-CFA/I family]										4	2	2	0	0	0	4	4	2	1	2	Western blot reaction of immune serum with denatured protein ([11]; titer 1:500, 0 no reaction): 0; Western blot reaction of immune serum with denatured protein ([11]; titer 1:5000, 0 no reaction): 0; Western blot reaction of immune serum with denatured protein ([11]; titer 1:50000, 0 no reaction): 0; agglutination of whole bacteria by serum [12]: 0/2; agglutination of whole bacteria by serum [13]: 0/2; agglutination of whole bacteria by serum [14]: 0/2; agglutination of whole bacteria by serum [15]: 0/2; agglutination of whole bacteria by serum [16]: 0/2; agglutination of whole bacteria by serum [17]: 0/2
peptide/BSA conjugate: consensus peptide with added terminal cysteine (SEQ ID NO:37) conjugated to iodoacetylated bovine serum albumin (CVEKNITVTASVDPTIDLLQADGSALPSAVALTYSPA; also: conjugated via added terminal Cys to iodoacetylated BSA; listed as Escherichia coli)										4	1	4	3	2	0.5	4	4	4	4	4	Western blot reaction of immune serum with denatured protein ([8]; titer 1:5000, 0 no reaction): 3; Western blot reaction of immune serum with denatured protein ([18]; titer 1:50, 0 no reaction): 4; Western blot reaction of immune serum with denatured protein ([18]; titer 1:500, 0 no reaction): 3; Western blot reaction of immune serum with denatured protein ([18]; titer 1:5000, 0 no reaction): 2; Western blot reaction of immune serum with denatured protein ([19]; titer 1:50, 0 no reaction): 4; Western blot reaction of immune serum with denatured protein ([19]; titer 1:500, 0 no reaction): 4; Western blot reaction of immune serum with denatured protein ([19]; titer 1:5000, 0 no reaction): 4; Western blot reaction of immune serum with denatured protein ([11]; titer 1:500, 0 no reaction): 4; Western blot reaction of immune serum with denatured protein ([11]; titer 1:5000, 0 no reaction): 3; Western blot reaction of immune serum with denatured protein ([11]; titer 1:50000, 0 no reaction): 2; agglutination of whole bacteria by serum [12]: 1/2; agglutination of whole bacteria by serum [13]: 2/2; agglutination of whole bacteria by serum [14]: 0/2; agglutination of whole bacteria by serum [15]: 0/2; agglutination of whole bacteria by serum [16]: 1/2; agglutination of whole bacteria by serum [17]: 1/2
